From patent US12415830B2, “Steroid compound, and use thereof and preparation method therefor” (Chengdu Kanghong Pharmaceutical Co Ltd, priority 2019, dated 2025)
Like-named read-outs stand apart in the source and are kept apart here.

Tests used:
GABAA1 (α1β2γ2) receptor = molecular target: T1, GABAA1 (α1β2γ2) receptor (Homo sapiens, UniProt P14867+P47870); assay: Patch-clamp electrophysiology on recombinant GABAA1 receptor in HEK293 cells, with 3 μM GABA; assay type: cell-based; details: for Emax at 0.1 µM / Emax at 1 µM / Emax: HEK293; for Emax at 0.1 µM: 0.1 μM compound together with 3 μmol GABA; for Emax at 0.1 µM / Emax at 1 µM: read-out: potency: ratio of the peak current on the GABAA1 receptor to the peak current in 100 μmol GABA; for Emax at 1 µM: 1 μM compound together with 3 μmol GABA; for Emax / EC50: together with 3 μmol GABA; for Emax: relative to peak current in 100 μmol GABA
T1 construct: expressed in transfected cells
T1 sequence (P14867 28-456): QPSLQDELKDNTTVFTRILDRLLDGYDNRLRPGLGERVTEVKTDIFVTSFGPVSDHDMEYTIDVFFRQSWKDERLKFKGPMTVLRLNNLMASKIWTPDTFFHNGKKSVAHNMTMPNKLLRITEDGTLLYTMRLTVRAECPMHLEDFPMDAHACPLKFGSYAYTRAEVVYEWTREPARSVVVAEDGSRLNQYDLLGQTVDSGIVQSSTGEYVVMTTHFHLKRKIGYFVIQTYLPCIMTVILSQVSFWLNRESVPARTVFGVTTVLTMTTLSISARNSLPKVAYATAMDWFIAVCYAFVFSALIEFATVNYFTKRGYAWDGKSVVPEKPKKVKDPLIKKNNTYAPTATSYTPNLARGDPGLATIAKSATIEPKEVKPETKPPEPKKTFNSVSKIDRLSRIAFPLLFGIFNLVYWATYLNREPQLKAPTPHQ
T1 sequence (P47870 26-512): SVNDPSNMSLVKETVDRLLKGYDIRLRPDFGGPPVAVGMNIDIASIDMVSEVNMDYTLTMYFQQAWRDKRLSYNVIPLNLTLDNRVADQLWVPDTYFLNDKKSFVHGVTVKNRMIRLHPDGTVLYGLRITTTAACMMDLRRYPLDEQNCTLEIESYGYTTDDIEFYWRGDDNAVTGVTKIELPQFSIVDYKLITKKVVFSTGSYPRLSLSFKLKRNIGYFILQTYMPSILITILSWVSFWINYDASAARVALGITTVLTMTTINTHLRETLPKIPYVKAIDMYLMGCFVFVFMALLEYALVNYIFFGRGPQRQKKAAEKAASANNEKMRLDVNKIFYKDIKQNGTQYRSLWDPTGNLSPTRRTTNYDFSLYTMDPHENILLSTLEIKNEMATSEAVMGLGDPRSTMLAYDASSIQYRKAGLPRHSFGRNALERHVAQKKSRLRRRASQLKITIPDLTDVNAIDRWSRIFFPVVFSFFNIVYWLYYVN
T1 sequence (P18507 40-475 partner): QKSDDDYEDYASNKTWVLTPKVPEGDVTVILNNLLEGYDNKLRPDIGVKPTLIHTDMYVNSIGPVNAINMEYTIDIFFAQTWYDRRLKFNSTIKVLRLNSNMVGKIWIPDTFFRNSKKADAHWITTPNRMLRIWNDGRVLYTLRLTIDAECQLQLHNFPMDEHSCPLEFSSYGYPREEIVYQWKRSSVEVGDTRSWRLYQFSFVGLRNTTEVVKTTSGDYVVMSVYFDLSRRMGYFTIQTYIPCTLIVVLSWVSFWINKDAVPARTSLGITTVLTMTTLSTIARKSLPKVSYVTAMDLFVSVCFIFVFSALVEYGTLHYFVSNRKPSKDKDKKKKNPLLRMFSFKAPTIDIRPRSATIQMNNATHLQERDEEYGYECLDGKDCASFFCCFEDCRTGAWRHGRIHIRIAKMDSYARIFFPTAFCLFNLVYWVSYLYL
Experimental: (§1) The present invention applies the two subunits of the recombinant GABAA receptor: α1β2γ2 and α4β3δ to evaluate the potency of the exemplary compounds in vitro by patch-clamp electrophysiology.
(§2) Extracellular fluid: 140 mM NaCl, 5 mM CsCl, 2 mM CaCl2·2H2O, 1 mM MgCl2·6H2O, 5 mM HEPES, 10 mM D-Glucose, pH=7.4 (NaOH).
(§3) Intracellular fluid: 130 mM CsCl, 0.1 mM CaCl2·H2O, 2 mM MgCl2·6H2O, 1.1 mM EGTA, 5 mM Na2-ATP, 10 mM HEPES, pH=7.2 (CsOH).
The HEK293 cells line stably expressing GABAA (α1β2γ2) receptors was cultured in Dulbecco's Modified Eagle Medium (DMEM) supplemented with 10% fetal bovine serum, 800 μg/mL G418, 200 μg/mL Hygromycin B and 100 μg/mL Zeocin. Cells were grown in a humidified incubator at 37° C. with 5% carbon dioxide.
Before manual patch clamp test, the cells were detached using 0.25%-Trypsin-EDTA solution. Then 8×10^3 cells were plated onto coverslips, and cultured in a 24-well plate (final medium volume: 500 μL) and tested after 18 hours by patch clamp.
(§4) Glass pipette (BF 150-86-10, Sutter Instruments) was pulled using a micropipette puller (P97, Sutter Instruments). The glass pipette was manipulated using a micro-manipulator (MP285, Sutter Instruments) under the microscope (IX71, Olympus). After touching the cell, a slight suction was applied to achieve high seal resistance (GQ). Fast capacitance (in pF) compensation was made after achieving high seal, and the membrane was broken. Cell capacitance (in pF) compensation was made from whole-cell capacitance compensation after the whole cell mode was achieved. No leak subtraction was made.
(§5) The test and control solutions flowed into a recording chamber mounted on the stage of an inverted microscope via a gravity-fed solution delivery system. During the experiment, solutions were withdrawn from the recording chamber by vacuum aspiration. Each concentration was tested at multiple times. All tests were performed at room temperature.
(§6) Whole cell model recorded GABAA1 receptors current experimental protocol was indicated as follows: When sealing, cell was at a holding potential of −70 mV, with gap-free mode to record the peak current. The cell would be applied with 3 μM GABA to active current. After the test articles application for 30 s, each concentration of test articles was applied with 3 μM GABA followed by 2 minutes washout using extracellular solution. Finally, 100 μM GABA was used as a positive control. The data were collected by EPC-10 amplifier and stored in PatchMaster (HEKA) software.
(§7) The following criteria are used to determine whether the data is acceptable: • (1) Electrode resistance <5MΩ • (2) Seal resistance >1GΩ • (3) The start of access resistance <15 MΩ • (4) The end of access resistance <15 MΩ • (5) No obvious spontaneous current decay. • (6) No obvious current leakage when the membrane potential is-70 mv. 56.6 Data Analysis
In the detection of GABAA1, the currents of 3 μM GABA and different concentrations of test compounds were respectively normalized to the current of 100 μM GABA
[formula] and then the activation rate corresponding to each concentration was calculated.
[formula] and then the activation rate corresponding to each concentration was calculated. Means, Standard Deviation and Standard Error were calculated for each test group. EC50 value was calculated using nonlinear regression: Y=Bottom+(Top−Bottom)/(1+10^((Log EC50−X)×HillSlope))
To fit data to the concentration-response, EC50 was the concentration giving a half-maximum effect and Hillslope was the Hill coefficient. Curve-fitting and EC50 calculations were performed using Graphpad5.0 software.
Emax is defined as the ratio of the peak current generated on the GABAA1 receptor to the peak current generated only in 100 μmol of GABA and the ratio is multiplied by 100%. The peak current generated on the GABAA1 receptor is that the exemplary compounds act on the GABAA1 receptor together with 3 μmol GABA.

GABAA4 (α4β3δ) receptor = molecular target: T2, GABAA4 (α4β3δ) receptor (Homo sapiens, UniProt P28472+P48169); assay: Patch-clamp electrophysiology, compound alone or with 10 nM GABA (Table 3); assay type: cell-based; details: for Emax: relative to peak current in GABA only
T2 construct: expressed in transfected cells; host or cells: HEK293 (transient transfection, plasmids 1:1:1)
T2 sequence (P48169 36-554): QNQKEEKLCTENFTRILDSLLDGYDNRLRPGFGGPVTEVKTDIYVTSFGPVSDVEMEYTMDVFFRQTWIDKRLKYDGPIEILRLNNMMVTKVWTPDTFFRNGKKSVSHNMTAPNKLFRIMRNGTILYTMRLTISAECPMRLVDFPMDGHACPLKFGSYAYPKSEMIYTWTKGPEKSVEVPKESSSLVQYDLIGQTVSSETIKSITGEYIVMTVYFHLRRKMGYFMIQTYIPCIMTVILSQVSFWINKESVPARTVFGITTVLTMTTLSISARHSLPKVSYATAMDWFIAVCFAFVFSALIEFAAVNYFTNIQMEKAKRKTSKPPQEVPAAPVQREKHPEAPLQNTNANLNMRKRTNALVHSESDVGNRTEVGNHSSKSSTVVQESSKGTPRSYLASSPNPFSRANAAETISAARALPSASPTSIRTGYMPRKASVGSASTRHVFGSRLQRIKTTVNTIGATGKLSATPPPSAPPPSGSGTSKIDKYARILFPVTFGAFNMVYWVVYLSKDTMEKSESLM
T2 sequence (P28472 26-473): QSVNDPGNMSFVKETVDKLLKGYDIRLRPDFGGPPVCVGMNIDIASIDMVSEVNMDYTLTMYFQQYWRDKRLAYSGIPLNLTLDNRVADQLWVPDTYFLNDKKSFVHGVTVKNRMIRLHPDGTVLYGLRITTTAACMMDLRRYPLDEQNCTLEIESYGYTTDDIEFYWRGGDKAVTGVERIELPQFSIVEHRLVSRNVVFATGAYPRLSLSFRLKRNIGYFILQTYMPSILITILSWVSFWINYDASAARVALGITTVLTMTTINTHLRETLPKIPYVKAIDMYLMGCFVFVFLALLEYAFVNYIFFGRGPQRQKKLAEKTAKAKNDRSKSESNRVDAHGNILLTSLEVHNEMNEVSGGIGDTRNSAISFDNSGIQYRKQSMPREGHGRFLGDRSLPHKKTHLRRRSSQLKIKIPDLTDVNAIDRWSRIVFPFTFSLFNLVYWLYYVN
T2 sequence (O14764 25-452 partner): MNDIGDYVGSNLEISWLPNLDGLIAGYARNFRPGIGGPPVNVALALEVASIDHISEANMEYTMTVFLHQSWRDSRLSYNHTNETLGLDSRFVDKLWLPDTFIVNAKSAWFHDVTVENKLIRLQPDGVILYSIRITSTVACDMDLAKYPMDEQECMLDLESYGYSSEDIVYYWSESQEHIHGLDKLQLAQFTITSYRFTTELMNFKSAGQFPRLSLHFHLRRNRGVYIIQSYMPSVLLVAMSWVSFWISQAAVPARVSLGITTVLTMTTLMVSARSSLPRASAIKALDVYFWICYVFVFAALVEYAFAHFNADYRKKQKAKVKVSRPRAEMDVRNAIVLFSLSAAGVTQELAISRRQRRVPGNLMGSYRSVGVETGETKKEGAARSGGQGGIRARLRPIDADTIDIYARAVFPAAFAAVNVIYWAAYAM
Experimental: as §1, §2, §3
HEK293 cell line was cultured in DMEM containing 10% fetal bovine serum and 5% carbon dioxide at 37° C.
Cell passage: The old medium was removed, and the cells were washed once with PBS. Then 1 mL 0.25%-Trypsin-EDTA solution was added to digest cells. The culture dish was incubated at 37° C. in pre-warmed incubator for 0.5 minutes. As soon as cells were detached, about 5 mL 37° C. pre-warmed complete medium was added. Cell aggregates were dissociated by gentle pipetting. The cell suspension was transferred into a sterile centrifuge tube and then the cell suspension was be spun at approximately 1000 rpm for 5 minutes. The cells were amplified or maintained by seeding 2.5×10^5 cells in a 6 cm dish (final medium volume: 5 mL). For transfection, 8×10^3 cells were plated onto coverslips, and cultured in a 24-well plate (final medium volume: […]).
Transfection: Second day, the transfection of GABAA4 (α4, β3, δ plasmid ratio 1:1:1) was performed. The X-tremeGENE HP DAN Transfection Reagents kit were used. The ratio of the plasmid and transfection reagent was 1 μg: 2 μL. The amount of plasmid in the 24-well plate was 0.5 μg per well, and the transfection reagent was 1 μL. The following specific steps were taken for preparing the 12 wells: The 600 μL Opti-MEM was added to a sterile centrifuge tube along with 6 μg of plasmid and was allowed to mix well; Then, the 12 μL of transfection reagent was added, mixed well following 15 min incubation at room temperature. The transfection complex was then inoculated into the cell, 50 μL per well, and the transfection complex was lightly stirred and mixed.
This mixture was changed on the third day, and the patch-clamp was performed on the fourth day.
as §4, §5
as §6, with “GABAA4” for “GABAA1”, “10 nM” for “3 μM”, “10” for “100”
as §7, with “56.6 Data Analysis” left out

[1] = with 10 nM GABA, read-out: Emax (with 10 nM GABA)
[2] = without GABA, read-out: Emax (without GABA)
[3] = with 10 nM GABA, read-out: EC50 (with 10 nM GABA)
[4] = without GABA, read-out: EC50 (without GABA)

## CC(=O)C1CCCC2[C@@H]3CC[C@H]4C[C@H](O)CC[C@]4(C)[C@H]3CC[C@]12C (stereo partly drawn) [KH001]
GABAA1 (α1β2γ2) receptor
  Emax at 0.1 µM: 20 to 40%
  Emax at 1 µM: 60 to 80%
GABAA4 (α4β3δ) receptor; EC50 (with 10 nM GABA), with 10 nM GABA
  EC50: 0.132 µM
GABAA4 (α4β3δ) receptor; EC50 (without GABA), without GABA
  EC50: 0.173 µM
GABAA4 (α4β3δ) receptor; [1]
  Emax: 91.7%
GABAA4 (α4β3δ) receptor; [2]
  Emax: 103%

## C[C@@]1(O)CC[C@@]2(C)[C@@H](CC[C@@H]3[C@@H]2CC[C@]2(C)[C@@H](C(=O)COc4noc5ccccc45)CCC[C@@H]32)C1 [KH025]
GABAA1 (α1β2γ2) receptor
  Emax at 0.1 µM: 0 to 20%
  Emax at 1 µM: 60 to 80%
  Emax: 93.7%
  EC50: 0.62 µM
GABAA4 (α4β3δ) receptor; [3]
  EC50: 0.572 µM
GABAA4 (α4β3δ) receptor; [1]
  Emax: 92.5%
GABAA4 (α4β3δ) receptor; [4]
  EC50: 0.947 µM
GABAA4 (α4β3δ) receptor; [2]
  Emax: 84.6%

## C[C@@]1(O)CC[C@@]2(C)[C@@H](CC[C@@H]3[C@@H]2CC[C@]2(C)[C@@H](C(=O)Cn4nnc(-c5ccccc5)n4)CCC[C@@H]32)C1 [KH039]
GABAA1 (α1β2γ2) receptor
  Emax at 0.1 µM: 0 to 20%
  Emax at 1 µM: 60 to 80%
GABAA4 (α4β3δ) receptor; [3]
  EC50: > 4 µM
GABAA4 (α4β3δ) receptor; [1]
  Emax: 125%
GABAA4 (α4β3δ) receptor; [4]
  EC50: > 4 µM
GABAA4 (α4β3δ) receptor; [2]
  Emax: 121%

## C[C@@]1(O)CC[C@@]2(C)[C@@H](CC[C@@H]3[C@@H]2CC[C@]2(C)[C@@H](C(=O)COc4ncnc5c(F)cccc45)CCC[C@@H]32)C1 [KH035]
GABAA1 (α1β2γ2) receptor
  Emax at 0.1 µM: 0 to 20%
  Emax at 1 µM: 20 to 40%

## C[C@]12CC[C@@H](O)C[C@@H]1CC[C@@H]1[C@@H]2CC[C@]2(C)[C@@H](C(=O)Cn3ccnn3)CCC[C@@H]12 [KH003]
GABAA1 (α1β2γ2) receptor
  Emax at 0.1 µM: 20 to 40%
  Emax at 1 µM: 60 to 80%
  Emax: 72.8%
  EC50: 0.478 µM

## C[C@@]1(O)CC[C@H]2[C@H](CC[C@@H]3[C@@H]2CC[C@]2(C)[C@@H](C(=O)Cn4ncnn4)CCC[C@@H]32)C1 [KH052]
GABAA1 (α1β2γ2) receptor
  Emax at 0.1 µM: 0 to 20%
  Emax at 1 µM: 0 to 20%

## C[C@@]1(O)CC[C@@]2(C)[C@@H](CC[C@@H]3[C@@H]2CC[C@]2(C)[C@@H](C(=O)Cn4cnnn4)CCC[C@@H]32)C1 [KH023]
GABAA1 (α1β2γ2) receptor
  Emax at 0.1 µM: 0 to 20%
  Emax at 1 µM: 0 to 20%
